Test results reported in the Bradley open melting point set (2014).
Several values for one entry are separate records, joined by “and”; a condition that tells them apart may be missing. Equal entries are not always repeated.

`CCCc1cc(O)nc(S)n1` [6-Propyl-2-sulfanylpyrimidin-4-ol] showed a melting point of 220 °C. In the case of `O=C(O)c1ccccc1O` [Salicyclic acid], the melting point is reported as 158 °C. Work on `Cc1ccc(Oc2ccccc2C=O)cc1` [2-(p-tolyloxy)benzaldehyde] yielded a melting point of 55 °C. Work on `CCOC(=O)[C@H](C)O` [ethyl l-lactate] yielded a melting point of -25 °C. For `CC1=CC(=O)c2ccccc2C1=O` [2-methyl-1,4-naphthoquinone], the melting point was 106 °C. With `Fc1cc(OCc2ccccc2)ccc1Br` [4-benzyloxy-1-bromo-2-fluorobenzene] the melting point was 34 °C. In the case of `O=C(O)/C=C/c1ccccc1[N+](=O)[O-]` [trans-2-nitrocinnamic acid], the melting point is reported as 247 °C. With `OB(O)c1ccc(N(Cc2ccccc2)Cc2ccccc2)cc1` [4-(dibenzylamino)benzeneboronic acid] the melting point was 186 °C. With `N=C(NCCCCCCNC(=N)NC(=N)Nc1ccc(Cl)cc1)NC(=N)Nc1ccc(Cl)cc1` the melting point was 134 °C. `[O-][n+]1ccccc1Cl` [2-chloropyridine n-oxide] showed a melting point of 69 °C. Compound `CC(C)(C)OC(=O)N[C@H](Cc1cccc(F)c1)C(=O)O` [N-boc-3-fluoro-d-phenylalanine] has a melting point of 77 °C. Compound `Cc1ccc(CS(=O)(=O)Cl)cc1` [alpha-p-xylenesulfonyl chloride] has a melting point of 77 °C. Work on `CCO` [Ethanol] yielded a melting point of -114 °C. Work on `CCCCC#N` [valeronitrile] yielded a melting point of -96 °C. With `N#Cc1ccc[n+]([O-])c1` [3-cyanopyridine 1-oxide] the melting point was 177 °C. Work on `CCCCCCCOc1ccc(C(=O)O)cc1` [4-n-heptyloxybenzoic acid] yielded a melting point of 93 °C. `O=C(O)c1ccc2c(c1)OCCCO2` [3,4-dihydro-2h-1,5-benzodioxepin-7-carboxylic acid] showed a melting point of 148 °C. `C=Cc1ccc([N+](=O)[O-])cc1` [p-nitrostyrene] showed a melting point of 29 °C. With `Cl[C@H]1[C@H](Cl)[C@@H](Cl)[C@@H](Cl)[C@H](Cl)[C@H]1Cl` [lindane] the melting point was 113 °C and 112 °C. In the case of `CCCCC(C)CC(O)C=CC1C(O)CC(=O)C1CCCCC=CC(=O)O` (stereo not drawn), the melting point is reported as 97 °C. `O=C1OC(c2ccccc2)=NC1=Cc1ccco1` [2-Oxazolin-5-one, 4-furfurylidene-2-phenyl-] gave a melting point of 159 °C. With `CC(C)CCOC(=O)/C=C/c1ccc(/C=C/C(=O)OCCC(C)C)c([N+](=O)[O-])c1` the melting point was 94 °C. `Clc1ccc(-c2cc(Cl)c(Cl)cc2Cl)cc1Cl` [PCB-118] gave a melting point of 110 °C. `c1ccc2nc3ccccc3nc2c1` [phenazine] gave a melting point of 176 °C. `Cc1ccc2sc(C)nc2c1` [2,5-dimethylbenzothiazole] showed a melting point of 40 °C. For `CCCCCCCCCCc1ccc(N(NC(=O)OC(C)(C)C)C(=O)OC(C)(C)C)cc1CCCCCCCCCC` [1,2-Bis(tert-butoxycarbonyl)-1-(3,4-didecylphenyl)hydrazine], the melting point was 37.5 °C. With `O=C(O)c1cc(O)ccc1O` [2,5-dihydroxybenzoic_acid] the melting point was 205 °C. In the case of `CCOC(=O)c1cncn1C(C)c1ccccc1` (stereo not drawn) [etomidate], the melting point is reported as 67 °C. `O=C(O)c1ccccc1C(=O)O` [Phthalic Acid] showed a melting point of 230 °C. `CCBr` [bromoethane] gave a melting point of -119 °C. With `O=[N+]([O-])c1cc([N+](=O)[O-])c(F)cc1F` [1,5-difluoro-2,4-dinitrobenzene] the melting point was 74 °C. `COc1cc(N)ccc1C` [3-methoxy-4-methylaniline] showed a melting point of 58 °C. Work on `Oc1ccccc1C=Nc1ccccc1` [salicylideneaniline] yielded a melting point of 51 °C. `COc1cc2nnc(/C=C/C(C)=O)c(-c3ccc(C)o3)c2cc1OC` gave a melting point of 170 °C. In the case of `Cc1cc(O)c(C(C)C)cc1Cl` [4-chloro-2-isopropyl-5-methylphenol], the melting point is reported as 60 °C. Compound `CC(=O)Nc1cc(C)ccc1O` [2'-hydroxy-5'-methylacetanilide] has a melting point of 149 °C. Compound `CN(C)c1ccc(C=O)cc1` [4-dimethylaminobenzaldehyde] has a melting point of 74 °C. For `O=C(O)c1ccc2ccccc2n1` [quinaldic acid], the melting point was 158 °C. For `CC(CC(=O)O)c1ccc(C(=O)O)cc1` (stereo not drawn) [4-(2-carboxy-1-methylethyl)benzoic acid], the melting point was 225 °C. `Cc1cc[n+]([O-])cc1C(=O)NN` [4-methylpyridine-3-carbohydrazide 1-oxide] showed a melting point of 226 °C. Compound `OC[C@@H](O)COCc1ccccc1` [(2R)-3-(Benzyloxy)propane-1,2-diol] has a melting point of 27.5 °C. With `CC(=O)c1cccc(O)c1` [3'-hydroxyacetophenone] the melting point was 95 °C. For `O=C(O)c1ccccc1C(=O)c1ccccc1` [2-benzoylbenzoic acid], the melting point was 129 °C. `COc1ccc(C(=O)O)cc1OC` [3,4-Dimethoxybenzoic acid] gave a melting point of 181 °C. `CC(=O)C(C)=O` [Biacetyl] showed a melting point of -3 °C. Compound `O=C4\C=C3/[C@@H]([C@H]2CC[C@]1([C@@H](CC[C@]1(C#C)O)[C@@H]2CC3)CC)CC4` [(-)-levonorgestrel] has a melting point of 236 °C. Compound `C[C@]12C/C(=C/O)C(=O)C[C@@H]1CC[C@@H]1[C@@H]2CC[C@@]2(C)[C@H]1CC[C@]2(C)O` has a melting point of 179 °C. For `Oc1cccc(O)c1` [Resorcinol], the melting point was 111 °C.
